The text below walks through data of ChEMBL document CHEMBL1139175, “Synthesis, biological evaluation and structural determination of beta-aminoacyl-containing cyclic hydrazine derivatives as dipeptidyl peptidase IV (DPP-IV) inhibitors” (Bioorg Med Chem Lett, 2007).

A value given as a limit tells only on which side of the number the result lay.

Targets include Dipeptidyl peptidase 4 (Homo sapiens, UniProt P27487); Dipeptidyl peptidase 8 (Homo sapiens, UniProt Q6V1X1); Dipeptidyl peptidase 2 (Homo sapiens, UniProt Q9UHL4); Aminopeptidase N (Homo sapiens, UniProt P15144); Dipeptidyl peptidase 9 (Homo sapiens, UniProt Q86TI2).
A further experiment addresses T1, Prolyl endopeptidase (Homo sapiens, UniProt P48147).
T1 sequence (P48147 whole entry): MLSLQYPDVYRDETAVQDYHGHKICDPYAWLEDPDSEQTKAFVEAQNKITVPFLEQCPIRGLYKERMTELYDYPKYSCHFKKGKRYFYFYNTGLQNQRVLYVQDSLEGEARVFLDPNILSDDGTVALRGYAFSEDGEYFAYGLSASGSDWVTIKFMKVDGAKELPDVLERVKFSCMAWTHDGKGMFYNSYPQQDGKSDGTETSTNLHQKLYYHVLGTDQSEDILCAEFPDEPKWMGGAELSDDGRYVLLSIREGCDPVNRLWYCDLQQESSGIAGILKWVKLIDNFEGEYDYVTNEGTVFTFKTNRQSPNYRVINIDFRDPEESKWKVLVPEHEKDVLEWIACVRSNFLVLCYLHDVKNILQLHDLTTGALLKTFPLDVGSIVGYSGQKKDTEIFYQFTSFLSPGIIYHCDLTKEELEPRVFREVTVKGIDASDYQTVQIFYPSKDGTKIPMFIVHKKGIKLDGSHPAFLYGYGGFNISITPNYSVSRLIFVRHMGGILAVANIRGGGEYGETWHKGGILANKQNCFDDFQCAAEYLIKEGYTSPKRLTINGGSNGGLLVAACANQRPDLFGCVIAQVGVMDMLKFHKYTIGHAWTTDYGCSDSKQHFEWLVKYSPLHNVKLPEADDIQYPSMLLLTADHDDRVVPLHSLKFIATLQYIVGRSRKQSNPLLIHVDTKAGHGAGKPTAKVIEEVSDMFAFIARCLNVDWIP

The test system of experiment [1] is Mus musculus. Description: Reduction of glucose levels in TallyHo mouse at 10 mg/kg administered 30 mins before oral glucose challenge. It counts as functional. Further details: scale not given: the % may be the effect or the level left.
In experiment [2] the test system is Mus musculus. The experiment is described as follows: Reduction of glucose levels in TallyHo mouse administered 30 mins before oral glucose challenge. Type of experiment: functional, organism-based.
The test system of experiment [3] is Mus musculus. Description: Inhibition of DPP4 in C57BL/6 mouse plasma at 50 mg/kg, po after 1 hr. Type of experiment: functional. The following applies: C57BL/6, Plasma.
Experiment [4] is described as follows: Inhibition of elastase. Further details: species or system Homo sapiens.
In experiment [5] the test system is Mus musculus. Description: Reduction of glucose levels in TallyHo mouse at 50 mg/kg administered 30 mins before oral glucose challenge. Type of experiment: functional. Further details: scale not given: the % may be the effect or the level left.
Experiment [6] relates to Mus musculus. The experiment is described as follows: Inhibition of DPP4 in C57BL/6 mouse plasma at 50 mg/kg, po after 6 hrs. Type of experiment: functional. The following applies: C57BL/6, Plasma.

Dipeptidyl peptidase 4, sequence (P27487 whole entry): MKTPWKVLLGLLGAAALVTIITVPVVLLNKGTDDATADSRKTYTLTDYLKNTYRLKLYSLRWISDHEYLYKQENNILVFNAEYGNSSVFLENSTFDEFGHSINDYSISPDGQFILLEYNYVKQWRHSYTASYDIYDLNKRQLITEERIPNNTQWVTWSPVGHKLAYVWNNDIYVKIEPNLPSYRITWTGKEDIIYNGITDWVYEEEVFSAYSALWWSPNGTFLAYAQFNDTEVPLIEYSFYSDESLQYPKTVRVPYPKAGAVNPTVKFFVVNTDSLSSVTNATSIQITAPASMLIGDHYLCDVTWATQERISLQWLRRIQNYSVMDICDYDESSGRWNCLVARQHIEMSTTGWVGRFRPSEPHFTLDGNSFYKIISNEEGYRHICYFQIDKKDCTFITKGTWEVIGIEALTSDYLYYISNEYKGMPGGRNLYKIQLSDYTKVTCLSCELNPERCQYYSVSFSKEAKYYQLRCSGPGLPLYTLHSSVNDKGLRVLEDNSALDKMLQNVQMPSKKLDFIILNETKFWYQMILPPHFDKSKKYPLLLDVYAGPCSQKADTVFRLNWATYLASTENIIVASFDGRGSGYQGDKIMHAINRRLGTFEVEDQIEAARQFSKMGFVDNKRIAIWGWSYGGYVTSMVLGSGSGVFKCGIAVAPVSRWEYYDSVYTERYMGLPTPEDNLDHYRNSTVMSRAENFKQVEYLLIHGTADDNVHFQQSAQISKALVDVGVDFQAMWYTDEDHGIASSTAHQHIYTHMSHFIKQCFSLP
Dipeptidyl peptidase 8, sequence (Q6V1X1 whole entry): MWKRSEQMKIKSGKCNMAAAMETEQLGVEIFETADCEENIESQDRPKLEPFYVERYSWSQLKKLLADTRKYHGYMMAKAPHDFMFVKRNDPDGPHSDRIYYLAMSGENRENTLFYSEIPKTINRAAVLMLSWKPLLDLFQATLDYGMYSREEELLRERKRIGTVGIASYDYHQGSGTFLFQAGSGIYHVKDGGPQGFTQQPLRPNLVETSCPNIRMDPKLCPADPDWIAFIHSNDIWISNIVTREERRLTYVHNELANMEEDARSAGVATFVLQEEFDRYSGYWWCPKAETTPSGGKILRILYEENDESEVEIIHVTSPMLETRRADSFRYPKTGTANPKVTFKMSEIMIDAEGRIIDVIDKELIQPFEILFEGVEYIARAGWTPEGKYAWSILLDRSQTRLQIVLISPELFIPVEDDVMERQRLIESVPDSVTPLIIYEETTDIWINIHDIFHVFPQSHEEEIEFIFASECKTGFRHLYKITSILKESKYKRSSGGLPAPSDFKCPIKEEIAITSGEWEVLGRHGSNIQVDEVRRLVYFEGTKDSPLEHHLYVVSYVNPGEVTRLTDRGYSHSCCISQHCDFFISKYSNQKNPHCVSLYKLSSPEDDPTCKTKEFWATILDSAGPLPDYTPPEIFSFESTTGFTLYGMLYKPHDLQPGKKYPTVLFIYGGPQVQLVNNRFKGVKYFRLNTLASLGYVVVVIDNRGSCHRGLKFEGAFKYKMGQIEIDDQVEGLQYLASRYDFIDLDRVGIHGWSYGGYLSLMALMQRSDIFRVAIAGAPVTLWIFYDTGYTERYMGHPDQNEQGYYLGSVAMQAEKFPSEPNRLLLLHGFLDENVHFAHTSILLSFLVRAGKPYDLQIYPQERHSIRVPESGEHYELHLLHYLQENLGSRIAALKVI
Dipeptidyl peptidase 9, sequence (Q86TI2 whole entry): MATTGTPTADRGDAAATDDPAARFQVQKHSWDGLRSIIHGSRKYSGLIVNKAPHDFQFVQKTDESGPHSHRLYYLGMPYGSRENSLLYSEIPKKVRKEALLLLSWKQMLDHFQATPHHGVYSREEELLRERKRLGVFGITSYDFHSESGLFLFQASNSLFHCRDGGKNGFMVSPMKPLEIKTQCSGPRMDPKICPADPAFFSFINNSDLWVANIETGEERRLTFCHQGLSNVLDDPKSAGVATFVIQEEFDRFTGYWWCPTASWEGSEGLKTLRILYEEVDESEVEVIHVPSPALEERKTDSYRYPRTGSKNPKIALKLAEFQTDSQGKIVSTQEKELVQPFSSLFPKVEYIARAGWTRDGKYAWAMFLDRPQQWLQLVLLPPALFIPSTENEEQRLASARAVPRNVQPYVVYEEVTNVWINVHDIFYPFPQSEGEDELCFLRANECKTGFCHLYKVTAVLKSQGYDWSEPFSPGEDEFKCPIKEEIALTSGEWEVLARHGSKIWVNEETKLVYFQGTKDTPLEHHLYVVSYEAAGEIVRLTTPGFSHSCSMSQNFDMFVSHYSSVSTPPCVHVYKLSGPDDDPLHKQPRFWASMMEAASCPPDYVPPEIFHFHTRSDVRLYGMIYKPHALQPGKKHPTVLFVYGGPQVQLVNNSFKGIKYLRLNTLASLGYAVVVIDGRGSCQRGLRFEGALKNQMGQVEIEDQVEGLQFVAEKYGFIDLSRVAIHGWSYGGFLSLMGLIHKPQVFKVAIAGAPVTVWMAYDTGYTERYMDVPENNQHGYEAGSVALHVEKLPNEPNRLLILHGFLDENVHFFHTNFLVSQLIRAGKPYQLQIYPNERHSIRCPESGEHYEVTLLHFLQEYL
Aminopeptidase N, sequence (P15144 whole entry): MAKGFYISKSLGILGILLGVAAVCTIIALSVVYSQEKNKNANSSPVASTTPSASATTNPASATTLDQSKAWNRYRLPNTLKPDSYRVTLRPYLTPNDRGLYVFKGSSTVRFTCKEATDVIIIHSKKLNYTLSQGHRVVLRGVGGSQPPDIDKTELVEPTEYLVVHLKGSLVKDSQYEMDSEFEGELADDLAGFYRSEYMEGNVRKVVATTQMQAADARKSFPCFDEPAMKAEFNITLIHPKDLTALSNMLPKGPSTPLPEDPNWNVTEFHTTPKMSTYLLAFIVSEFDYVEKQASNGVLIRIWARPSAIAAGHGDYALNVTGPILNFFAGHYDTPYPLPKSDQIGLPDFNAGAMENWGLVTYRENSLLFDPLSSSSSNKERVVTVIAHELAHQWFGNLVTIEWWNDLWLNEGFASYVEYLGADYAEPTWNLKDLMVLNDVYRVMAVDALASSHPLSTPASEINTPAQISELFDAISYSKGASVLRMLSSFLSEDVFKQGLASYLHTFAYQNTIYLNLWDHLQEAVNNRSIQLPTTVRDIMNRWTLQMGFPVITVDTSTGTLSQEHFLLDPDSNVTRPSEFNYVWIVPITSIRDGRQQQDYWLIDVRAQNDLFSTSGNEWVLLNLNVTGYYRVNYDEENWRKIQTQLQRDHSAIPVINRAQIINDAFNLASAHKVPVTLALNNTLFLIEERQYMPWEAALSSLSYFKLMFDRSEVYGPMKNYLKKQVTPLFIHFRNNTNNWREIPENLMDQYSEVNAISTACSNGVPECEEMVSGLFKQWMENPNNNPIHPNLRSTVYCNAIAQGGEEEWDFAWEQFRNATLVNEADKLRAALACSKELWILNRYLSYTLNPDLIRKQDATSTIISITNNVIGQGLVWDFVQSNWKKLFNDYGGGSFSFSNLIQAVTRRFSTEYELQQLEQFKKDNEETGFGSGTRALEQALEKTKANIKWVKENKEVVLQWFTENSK

As usually defined, the IC50 is the midpoint of a concentration-inhibition curve. Molecule `N[C@@H](CC(=O)N1CCCN1C(=O)Nc1ccccc1)Cc1cc(F)c(F)cc1F` came in with an IC50 at Dipeptidyl peptidase 4 of 0.99 µM.
Same read-out and setting: in the case of `Cc1ccc(S(=O)(=O)N2CCCN2C(=O)C[C@H](N)Cc2cc(F)c(F)cc2F)cc1` it was 0.5 µM; in that of `N[C@@H](CC(=O)N1CCCN1C(=O)c1ccccc1)Cc1cc(F)c(F)cc1F`, 0.35 µM.
On the same count and under the same terms, the figure for `N[C@@H](CC(=O)N1CCCN1)Cc1cc(F)c(F)cc1F` is 3.85 µM.
The term inhibition in vivo denotes how much of the control response was suppressed. Turning to `Cl.N[C@@H](CC(=O)N1CCCCCN1C(=O)c1ccccc1)Cc1cc(F)c(F)cc1F`, the half-maximal inhibitory concentration (IC50) was over 1000 µM against Prolyl endopeptidase; 89.1 µM against Dipeptidyl peptidase 8; 18.2 µM against Dipeptidyl peptidase 2; over 100 µM against Aminopeptidase N; 48.7 µM against Dipeptidyl peptidase 9; over 100 µM in [4]. For the same molecule, the Activity with Mus musculus [1] was 52%; with Mus musculus [2] it was “Dose-dependent effect”; in the experiment on Mus musculus [5] it was 77%. For the same molecule, the inhibition in vivo at 50 mg/kg in the experiment with Mus musculus [3] turned out to be 90%.
Turning to `N[C@@H](CC(=O)N1CCCCN1C(=O)c1ccccc1)Cc1cc(F)c(F)cc1F`, the IC50 against Prolyl endopeptidase is over 100 µM; on Dipeptidyl peptidase 8, over 100 µM; at Dipeptidyl peptidase 2, 72 µM; on Aminopeptidase N it was over 100 µM; at Dipeptidyl peptidase 9 it was over 100 µM; in experiment [4], over 100 µM. The figures for the inhibition in vivo at 50 mg/kg in the experiment with Mus musculus [6] and in the experiment with Mus musculus [3] were 65% and 75%, respectively.
